The test system of this assay is L1210 leukemia ip in BDF1 mice, survival T/C. Put plainly: NCI In Vivo Anticancer Drug Screen. Data for tumor model L1210 Leukemia (intraperitoneal) in B6D2F1 (BDF1) mice. Particulars: endpoint: mean survival time, higher = longer survival. An outline of the steps:
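Tumor cells were implanted, animals were treated, and survival was followed. The result divides the treated measurement by the vehicle-control measurement.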

Where [1] appears, read: dose: 100.0 mg/kg/injection, schedule: Q01DX009 (ip), vehicle: Klucel (hydroxypropylcellulose) (HPC).
Setting [2] is: dose: 100.0 mg/kg/injection, schedule: Q04DX003 (ip), vehicle: Klucel (hydroxypropylcellulose) (HPC).
Setting [3] is: dose: 200.0 mg/kg/injection, schedule: Q01DX009 (ip), vehicle: Klucel (hydroxypropylcellulose) (HPC).
Setting [4] is: dose: 200.0 mg/kg/injection, schedule: Q04DX003 (ip), vehicle: Klucel (hydroxypropylcellulose) (HPC).
[5] abbreviates: dose: 400.0 mg/kg/injection, schedule: Q04DX003 (ip), vehicle: Klucel (hydroxypropylcellulose) (HPC).
Setting [6] is: dose: 6.25 mg/kg/injection, schedule: Q01DX009 (ip), vehicle: saline.
Where [7] appears, read: dose: 12.5 mg/kg/injection, schedule: Q01DX009 (ip), vehicle: saline.
Where [8] appears, read: dose: 100.0 mg/kg/injection, schedule: Q04DX003 (ip), vehicle: saline with Tween-80.
Where [9] appears, read: dose: 100.0 mg/kg/injection, schedule: Q01DX001 (ip), vehicle: carboxymethylcellulose (CMC).
The mark [10] stands for this setting: dose: 200.0 mg/kg/injection, schedule: Q01DX001 (ip), vehicle: carboxymethylcellulose (CMC).
[11] abbreviates: dose: 400.0 mg/kg/injection, schedule: Q01DX001 (ip), vehicle: carboxymethylcellulose (CMC).
The mark [12] stands for this setting: dose: 200.0 mg/kg/injection, schedule: Q01DX009 (ip), vehicle: saline with Tween-80.

Toxic doses and inconclusive results are not listed.

As to `O=C1c2ccccc2C(=O)N1CC[P+](c1ccccc1)(c1ccccc1)c1ccccc1`, the T/C (dose: 1.56 mg/kg/injection, schedule: Q01DX009 (ip), vehicle: water) is 106 % of control; the T/C (dose: 3.12 mg/kg/injection, schedule: Q01DX009 (ip), vehicle: water) is 107 % of control; the T/C (dose: 6.25 mg/kg/injection, schedule: Q01DX009 (ip), vehicle: water) was 108 % of control; the T/C (dose: 12.5 mg/kg/injection, schedule: Q01DX009 (ip), vehicle: water) is 110 % of control; the T/C (dose: 25.0 mg/kg/injection, schedule: Q01DX009 (ip), vehicle: water) was 98 % of control.

`Nc1ccc2c(c1)-c1ccccc1C1=NCCN12`: the T/C (dose: 2.5 mg/kg/injection, schedule: Q04DX003 (ip), vehicle: Klucel (hydroxypropylcellulose) (HPC)) was 102 % of control; the T/C (dose: 5.0 mg/kg/injection, schedule: Q01DX009 (ip), vehicle: Klucel (hydroxypropylcellulose) (HPC)) was 98 % of control; the T/C (dose: 5.0 mg/kg/injection, schedule: Q04DX003 (ip), vehicle: Klucel (hydroxypropylcellulose) (HPC)) was 102 % of control; the T/C (dose: 10.0 mg/kg/injection, schedule: Q01DX009 (ip), vehicle: Klucel (hydroxypropylcellulose) (HPC)) is 98 % of control; the T/C (dose: 10.0 mg/kg/injection, schedule: Q04DX003 (ip), vehicle: Klucel (hydroxypropylcellulose) (HPC)) is 93 % of control; the T/C (dose: 20.0 mg/kg/injection, schedule: Q01DX009 (ip), vehicle: Klucel (hydroxypropylcellulose) (HPC)) was 96 % of control. Also, under “dose: 20.0 mg/kg/injection, schedule: Q04DX003 (ip), vehicle: Klucel (hydroxypropylcellulose) (HPC)”, the T/C is 90 % of control.

Take `Clc1ccc(C2=NC3=CC(Cl)C=CC3=CC2C2CO2)cc1` (stereo not given): the T/C was 96 % of control under setting [1]; 94 % of control under setting [2]; 98 % of control under setting [3]; 94 % of control under setting [4]; 98 % of control under setting [5].

In the case of `CN(Cc1cnc2nc(N)nc(N)c2n1)c1ccc(C(=O)NC(CCC(=O)O)C(=O)O)cc1[N+](=O)[O-]` (stereo not given), the T/C (dose: 2.5 mg/kg/injection, schedule: Q01DX009 (ip), vehicle: sodium bicarbonate) is 155 % of control; the T/C (dose: 5.0 mg/kg/injection, schedule: Q01DX009 (ip), vehicle: sodium bicarbonate) was 112 % of control; the T/C (dose: 10.0 mg/kg/injection, schedule: Q01DX009 (ip), vehicle: sodium bicarbonate) was 90 % of control.

Turning to `CCNC(C)(C)C(SSSC(c1ccc(C(F)(F)F)cc1)C(C)(C)NCC)c1ccc(C(F)(F)F)cc1` (stereo not given), the T/C was 91 % of control under setting [6]; 96 % of control under setting [7]; 95 % of control (dose: 25.0 mg/kg/injection, schedule: Q01DX009 (ip), vehicle: saline).

Take `S=C(c1ccco1)N1CCOCC1`: the T/C (dose: 75.0 mg/kg/injection, schedule: Q01DX001 (ip), vehicle: carboxymethylcellulose (CMC)) was 97 % of control; the T/C (dose: 75.0 mg/kg/injection, schedule: Q01DX009 (ip), vehicle: saline with Tween-80) was 102 % of control; the T/C (dose: 75.0 mg/kg/injection, schedule: Q04DX003 (ip), vehicle: saline with Tween-80) is 104 % of control; the T/C (dose: 150.0 mg/kg/injection, schedule: Q01DX001 (ip), vehicle: carboxymethylcellulose (CMC)) is 104 % of control; the T/C (dose: 150.0 mg/kg/injection, schedule: Q01DX009 (ip), vehicle: saline with Tween-80) was 100 % of control; the T/C (dose: 150.0 mg/kg/injection, schedule: Q04DX003 (ip), vehicle: saline with Tween-80) is 97 % of control. In addition, the T/C (dose: 300.0 mg/kg/injection, schedule: Q01DX001 (ip), vehicle: carboxymethylcellulose (CMC)) is 98 % of control and the T/C (dose: 300.0 mg/kg/injection, schedule: Q04DX003 (ip), vehicle: saline with Tween-80) was 89 % of control.

With `Cc1ccc2c(c1)[n+]([O-])c(N)c(C#N)[n+]2[O-]`, the T/C is 102 % of control (dose: 100.0 mg/kg/injection, schedule: Q04DX002 (ip), vehicle: Klucel (hydroxypropylcellulose) (HPC)) and 98 % of control (dose: 200.0 mg/kg/injection, schedule: Q04DX002 (ip), vehicle: Klucel (hydroxypropylcellulose) (HPC)).

As for `Clc1nn2nnnc2c2ccccc12`, the T/C (dose: 6.25 mg/kg/injection, schedule: Q04DX002 (ip), vehicle: Klucel (hydroxypropylcellulose) (HPC)) was 93 % of control; the T/C (dose: 12.5 mg/kg/injection, schedule: Q04DX002 (ip), vehicle: Klucel (hydroxypropylcellulose) (HPC)) is 93 % of control; the T/C (dose: 25.0 mg/kg/injection, schedule: Q04DX002 (ip), vehicle: Klucel (hydroxypropylcellulose) (HPC)) is 96 % of control; the T/C (dose: 25.0 mg/kg/injection, schedule: Q04DX003 (ip), vehicle: saline with Tween-80) is 98 % of control; the T/C (dose: 50.0 mg/kg/injection, schedule: Q04DX003 (ip), vehicle: saline with Tween-80) is 101 % of control; the T/C under setting [8] was 98 % of control.

As for `O=C1c2ccccc2-c2ccc([N+](=O)[O-])c(Br)c21`, the T/C reads like this: under setting [9], 106 % of control; under setting [10], 106 % of control; under setting [11], 102 % of control.

Turning to `NC(=O)CCC(N)C(=O)O` (stereo not given), the T/C is 108 % of control under setting [6]; 97 % of control (dose: 100.0 mg/kg/injection, schedule: Q01DX009 (ip), vehicle: saline with Tween-80); 94 % of control under setting [8]; 90 % of control under setting [12]; 93 % of control (dose: 200.0 mg/kg/injection, schedule: Q04DX003 (ip), vehicle: saline with Tween-80); 93 % of control (dose: 400.0 mg/kg/injection, schedule: Q01DX009 (ip), vehicle: saline with Tween-80). Further, the T/C (dose: 400.0 mg/kg/injection, schedule: Q04DX003 (ip), vehicle: saline with Tween-80) is 96 % of control.

Regarding `OCCC1COc2ccccc2O1` (stereo not given), the T/C is 97 % of control under setting [9], 95 % of control under setting [10] and 103 % of control under setting [11].

Take `c1cnc2c(c1)CCCC2`: the T/C is 86 % of control (dose: 50.0 mg/kg/injection, schedule: Q01DX009 (ip), vehicle: saline with Tween-80) and 86 % of control under setting [12].

Regarding `COc1ccc2c(c1OC)C1C3CC=CC3C2C2=[N+]1CCc1cc3c(cc12)OCO3` (stereo not given), the T/C is, setting by setting: (dose: 1.56 mg/kg/injection, schedule: Q01DX009 (ip), vehicle: saline) 102 % of control; (dose: 3.12 mg/kg/injection, schedule: Q01DX009 (ip), vehicle: saline) 93 % of control; under setting [6], 98 % of control; under setting [7], 113 % of control.

Regarding `CC(=O)C1(Cl)CCC(C(C)(C)C)CC1` (stereo not given), the T/C reads like this: (dose: 100.0 mg/kg/injection, schedule: Q04DX002 (ip), vehicle: saline with Tween-80) 111 % of control; (dose: 200.0 mg/kg/injection, schedule: Q04DX002 (ip), vehicle: saline with Tween-80) 103 % of control; (dose: 400.0 mg/kg/injection, schedule: Q04DX002 (ip), vehicle: saline with Tween-80) 103 % of control.

`O=NN(CCCl)C(=O)NC1CCS(=O)(=O)C1` (stereo not given) (tested in a mixture with another compound): the T/C (dose: 6.0 mg/kg/injection, schedule: Q01DX001 (ip), vehicle: other) was 177 % of control; the T/C (dose: 9.0 mg/kg/injection, schedule: Q01DX001 (ip), vehicle: other) is 270 % of control; the T/C (dose: 13.0 mg/kg/injection, schedule: Q01DX001 (ip), vehicle: other) is 300 % of control; the T/C (dose: 20.0 mg/kg/injection, schedule: Q01DX001 (ip), vehicle: other) is 200 % of control; the T/C (dose: 30.0 mg/kg/injection, schedule: Q01DX001 (ip), vehicle: other) is 223 % of control; the T/C (dose: 44.0 mg/kg/injection, schedule: Q01DX001 (ip), vehicle: other) is 184 % of control. The T/C (dose: 67.0 mg/kg/injection, schedule: Q01DX001 (ip), vehicle: other) was 102 % of control.

Take `CCOC(=O)C(C)(C)CCl`: the T/C under setting [1] was 100 % of control; the T/C under setting [3] was 94 % of control; the T/C (dose: 400.0 mg/kg/injection, schedule: Q01DX009 (ip), vehicle: Klucel (hydroxypropylcellulose) (HPC)) was 103 % of control.

Turning to `Cc1c(C)c2c(C#N)c3ccccc3nc2c2ccccc12`, the T/C runs as follows: (dose: 50.0 mg/kg/injection, schedule: Q04DX003 (ip), vehicle: Klucel (hydroxypropylcellulose) (HPC)) 102 % of control; under setting [2], 102 % of control; under setting [4], 107 % of control; under setting [5], 103 % of control.

The record behind these values is PubChem BioAssay AID248 (DTP/NCI, 2004).
